Reference: patent US20040034219A1, “Benzothiophene derivative compounds process of preparation and use thereof” (priority 2000, published 2004)
Where a name gives a salt, the structure may show the parent alone.

Key:
5-HT1A receptors = molecular target: T1, 5-HT1A receptors (Rattus norvegicus, UniProt P19327); test: Tests for fixing to serotonin 5HT1A receptors, 3H-DPAT displacement; type: binding; conditions: membranes of rat cerebral cortex, 3H-DPAT 1 nM, 15 minutes at 37° C.
T1 construct: fraction of membranes isolated from the cerebral cortex of rats; from tissue; host or cells: rat cerebral (frontal) cortex membranes
T1 sequence (P19327 1-422): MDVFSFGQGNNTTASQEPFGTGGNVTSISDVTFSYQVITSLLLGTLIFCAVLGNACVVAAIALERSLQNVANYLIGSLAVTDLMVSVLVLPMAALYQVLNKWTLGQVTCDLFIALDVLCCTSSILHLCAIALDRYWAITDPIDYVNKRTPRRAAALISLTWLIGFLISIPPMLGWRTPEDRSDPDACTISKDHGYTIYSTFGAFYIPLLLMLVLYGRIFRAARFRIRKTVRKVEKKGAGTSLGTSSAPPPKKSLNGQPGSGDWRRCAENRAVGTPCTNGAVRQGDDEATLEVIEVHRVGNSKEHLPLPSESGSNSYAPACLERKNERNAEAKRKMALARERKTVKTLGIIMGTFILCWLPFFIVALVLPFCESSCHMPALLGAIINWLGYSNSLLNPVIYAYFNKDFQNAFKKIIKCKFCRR
Experimental: Tests for Fixing to Serotonin 5HT1A Receptors
The technique described by Hoyer and collaborators (Eur. J. Pharmacol. 118:13-23.1985) was used to determine the affinity of the products for the 5-HT1A receptors. The studies were carried out with the fraction of membranes isolated from the cerebral cortex of rats. The agonist ^3H-Dipropylaminotetraline (DPAT) was used as specific ligand, while non-radioactive DPAT was used as displacing ligand.
In order to isolate the fraction of membranes, the frontal cortex of the rat was dissected and homogenised in Tris-HCl 50 mM, pH 7.7 at 4° C. The resulting homogenate was centrifuged at 25000 rpm for 15 minutes at 4° C. and the sediment resuspended in Tris-HCl containing CaCl2 4 mM. For the fixing test the suspension of membranes was incubated with ^3H-DPAT (1 nM) and different concentrations of the cold displacing agent. Once the incubation period of 15 minutes at 37° C. had elapsed, the membrane fraction was separated by means of rapid filtration and the radioactivity of the combined fraction quantified by means of liquid scintillation.
(§1) The results are expressed as the Ki of the serotonin transporter and the Ki of the 5-HT1A receptor.

serotonin transporter = molecular target: T2, serotonin transporter (Rattus norvegicus, UniProt P31652); test: Tests of fixing to the serotonin transporter (5-HT), 3H-paroxetine displacement; type: binding; conditions: membranes of rat cerebral cortex, 3H-paroxetine 0.1 nM, 60 minutes at 22° C.
T2 construct: a fraction of semi-purified membranes of the cerebral cortex of rat; from tissue; host or cells: rat cerebral cortex membranes
Experimental: Tests of Fixing to the Serotonin Transporter (5-HT)
The biological material used was a fraction of semi-purified membranes of the cerebral cortex of rat, obtained using the method described above.
The membrane fraction was resuspended in Tris-HCl 50 mM, pH 7.4 at 40° C., which contained NaCl 120 mM and KCl 5 mM, and was incubated with ^3H-paroxetine 0.1 nM and different concentrations of fluoxetine as displacing agent. At the end of the period of incubation of 60 minutes at 22° C. the membrane fraction was separated by rapid filtration and the radioactivity of the combined fraction quantified by means of liquid scintillation.
as §1

T2 sequence (P31652 whole entry): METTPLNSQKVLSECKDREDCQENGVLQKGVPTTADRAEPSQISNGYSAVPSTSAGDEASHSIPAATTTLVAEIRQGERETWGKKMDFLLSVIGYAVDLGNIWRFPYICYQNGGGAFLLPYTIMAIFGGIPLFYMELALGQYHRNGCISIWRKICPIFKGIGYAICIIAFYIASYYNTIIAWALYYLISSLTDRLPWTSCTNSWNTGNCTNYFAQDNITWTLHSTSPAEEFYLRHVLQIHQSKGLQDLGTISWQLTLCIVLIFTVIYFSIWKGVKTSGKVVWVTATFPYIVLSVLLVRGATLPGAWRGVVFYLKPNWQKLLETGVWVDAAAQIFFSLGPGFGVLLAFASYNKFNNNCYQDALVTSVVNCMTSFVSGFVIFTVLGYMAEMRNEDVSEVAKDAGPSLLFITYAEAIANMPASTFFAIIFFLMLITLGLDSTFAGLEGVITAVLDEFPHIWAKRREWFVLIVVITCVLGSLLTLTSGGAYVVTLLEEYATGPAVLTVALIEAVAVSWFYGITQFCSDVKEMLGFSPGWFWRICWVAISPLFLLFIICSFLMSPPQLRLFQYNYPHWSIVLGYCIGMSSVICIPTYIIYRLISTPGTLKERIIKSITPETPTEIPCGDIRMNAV

Row | Structure (SMILES) | melting point [°C] | Ki (5-HT1A receptors) [nM] | Ki (serotonin transporter) [nM]
1 | Cl.Cl.O=C(CCN1CCN(c2cccc3cccnc23)CC1)c1csc2ccccc12 | 150 to 152 |  | 
2 | O=C(CCN1CCN(c2ccc3ccccc3n2)CC1)c1csc2ccccc12 [Example 14, 1-(benzo[b]thiophen-3-yl)-3-[4-(quinol-2-yl)piperazin-1-yl]propan-1-one] | 92 to 96 |  | 
3 | O=C(CCN1CCN(c2ccnc3ccccc23)CC1)c1csc2ccccc12 [Example 15, 1-(benzo[b]thiophen-3-yl) -3-[4-(quinol-4-yl)piperazin-1-yl]propan-1-one] | 134 to 136 |  | 
4 | OC(CCN1CCN(c2cccc3cccnc23)CC1)c1csc2ccc(F)cc12 (stereo not drawn) [Example 27, 1-(5-fluorobenzo[b]thiophen-3-yl)-3-[4-(quinol-8-yl)piperazin-1-yl]propan-1-ol] | 89 to 91 | 2.7 | 7.5
5 | OC(CCN1CCN(c2cccc3c2OCCO3)CC1)c1csc2ccc(F)cc12 (stereo not drawn) [Example 28, 1-(5-fluorobenzo[b]thiophen-3-yl)-3-[4-(2,3-dihydro-1,4-benzodioxyn-5-yl)piperazin-1-yl]propan-1-ol] | 147 to 150 | 6 | 14.9
6 | Cl.OC(CCN1CCN(c2cccc3[nH]ccc23)CC1)c1csc2ccccc12 (stereo not drawn) [Example 35, 1-(benzo[b]thiophen-3-yl)-3-[4-(indol-4-yl)piperazin-1-yl]propan-1-ol hydrochloride] | > 300 | 5.5 | 4.1
7 | Cc1ccc2cccc(N3CCN(CCC(O)c4csc5ccccc45)CC3)c2n1 (stereo not drawn) [Example 36, 1-(benzo[b]thiophen-3-yl)-3-[4-(quinaldin-8-yl)piperazin-1-yl]propan-1-ol hydrochloride] |  | 10.2 | 9.9
8 | O=[N+]([O-])c1ccc2scc(C(O)CCN3CCN(c4cccc5c4OCCO5)CC3)c2c1 (stereo not drawn) [Example 39, 1-(5-nitrobenzo[b]thiophen-3-yl)-3-[14-(2,3-dihydro-1,4-benzodioxyn-5-yl)piperazin-1-yl]propan-1-ol] |  | 14 | 6.9
9 | OC(CCN1CCN(c2ccc3ccccc3n2)CC1)c1csc2ccccc12 (stereo not drawn) [Example 44, 1-(benzo [b]thiophen-3-yl) -3-[4-(quinol-2-yl)piperazin-1-yl]propan-1-ol] |  | 377 | 6.4
10 | OC(CCN1CCN(c2ccnc3ccccc23)CC1)c1csc2ccccc12 (stereo not drawn) [Example 45, 1-(benzo[b]thiophen-3-yl)-3-[4-(quinol-4-yl)piperazin-1-yl]propan-1-ol hydrochloride] |  | 301 | 19.4
11 | OC(CCN1CCN(c2ccc3ncccc3c2)CC1)c1csc2ccccc12 (stereo not drawn) [Example 47, 1-(benzo[b]thiophen-3-yl)-3-[4-(quinol-6-yl)piperazin-1-yl]propan-1-ol] |  | 546 | 2.2
12 | Oc1ccc2scc(C(O)CCN3CCN(c4cccc5c4OCCO5)CC3)c2c1 (stereo not drawn) [Example 50, 1-(5-hydroxybenzo[b]thiophen-3-yl)-3-[4-(2,3-dihydro-1,4-benzodioxyn-5-yl)piperazin-1-yl]propan-1-ol] |  | 18.2 | 6.2

Second part, the molecule after the results:

Row | melting point [°C] | Ki (5-HT1A receptors) [nM] | Ki (serotonin transporter) [nM] | Structure (SMILES)
13 | 83 to 85 |  |  | O=C(CCN1CCN(c2cccc3[nH]ccc23)CC1)c1csc2ccccc12 [Example 10, 1-(benzo[b]thiophen-3-yl)-3-[4-(indol-4-yl)piperazin-1-yl]propan-1-one]
14 | 112 to 114 |  |  | O=C(CCN1CCN(c2cnc3ccccc3c2)CC1)c1csc2ccccc12 [Example 16, 1-(benzo [b]thiophen-3-yl) -3-[4-(quinol-3-yl)piperazin-1-yl]propan-1-one]
15 |  | 3.2 | 15.9 | O=C(CCN1CCN(c2cccc3c2OCCO3)CC1)c1csc2ccc([N+](=O)[O-])cc12 [Example 21, 1-(5-nitrobenzo[b]thiophen-3-yl)-3-[4-(2,3-dihydro-1,4-benzodioxyn-5-yl)piperazin-1-yl]propan-1-one]
16 | 170 to 173 | 5.9 | 7.3 | OC(CCN1CCN(c2cccc3[nH]ccc23)CC1)c1csc2ccc(F)cc12 (stereo not drawn) [Example 29, 1-(5-fluorobenzo[b]thiophen-3-yl)-3-[4-(indol-4-yl)piperazina-1-yl]propan-1-ol]
17 |  | 2.5 | 8.5 | Cc1ccc2cccc(N3CCN(CCC(O)c4csc5ccc(F)cc45)CC3)c2n1 (stereo not drawn) [Example 30, 1-(5-fluorobenzo[b]thiophen-3-yl)-3-[4-(quinaldin-8-yl)piperazin-1-yl]propan-1-ol]
18 | 169 to 170 | 1.5 | 8.6 | Cl.OC(CCN1CCN(c2cccc3cccnc23)CC1)c1csc2ccccc12 (stereo not drawn) [Example 33, 1-(benzo[b]thiophen-3-yl)-3-[4-(quinol-8-yl)piperazin-1-yl]propan-1-ol hydrochloride]
19 | 127 to 129 | 26.1 | 12.7 | OC(CCN1CCN(c2cccc3ncccc23)CC1)c1csc2ccccc12 (stereo not drawn) [Example 37, 1-(benzo[b]thiophen-3-yl)-3-[4-(quinol-5-yl)piperazin-1-yl]propan-1-ol]
